Test results from ChEMBL document CHEMBL1641373, “Trishomocubane as a scaffold for the development of selective dopamine transporter (DAT) ligands” (Bioorg Med Chem Lett, 2011).

Columns and labels:
[1] = biological target: T1, D(1B) dopamine receptor (Homo sapiens, UniProt P21918); experiment: Inhibition of dopamine D5 receptor at 10 uM
[2] = biological target: T2, Muscarinic acetylcholine receptor M3 (Homo sapiens, UniProt P20309); experiment: Inhibition of muscarinic M3 receptor at 10 uM
Target sequence in this assay (P20309 whole entry, looked up): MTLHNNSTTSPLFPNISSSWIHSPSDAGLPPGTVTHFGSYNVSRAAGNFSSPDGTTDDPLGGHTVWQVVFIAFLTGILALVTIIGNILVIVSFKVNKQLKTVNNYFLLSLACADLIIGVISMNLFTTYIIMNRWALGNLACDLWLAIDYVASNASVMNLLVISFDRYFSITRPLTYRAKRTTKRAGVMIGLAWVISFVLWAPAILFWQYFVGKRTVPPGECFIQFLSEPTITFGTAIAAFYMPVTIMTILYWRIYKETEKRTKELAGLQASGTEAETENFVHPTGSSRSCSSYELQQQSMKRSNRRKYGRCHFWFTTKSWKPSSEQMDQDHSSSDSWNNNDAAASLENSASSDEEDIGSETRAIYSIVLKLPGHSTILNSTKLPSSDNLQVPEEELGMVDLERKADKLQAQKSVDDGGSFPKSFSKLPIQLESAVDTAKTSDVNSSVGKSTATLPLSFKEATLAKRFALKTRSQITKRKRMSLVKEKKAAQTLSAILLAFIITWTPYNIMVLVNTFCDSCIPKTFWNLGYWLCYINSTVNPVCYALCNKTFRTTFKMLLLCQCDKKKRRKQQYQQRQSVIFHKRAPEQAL

[3] = biological target: T3, 5-hydroxytryptamine receptor 2B (Homo sapiens, UniProt P41595); experiment: Inhibition of 5HT2B receptor at 10 uM
[4] = biological target: T4, 5-hydroxytryptamine receptor 3A (Homo sapiens) (UniProt P46098); experiment: Inhibition of 5HT3 receptor at 10 uM
T4 sequence (whole entry): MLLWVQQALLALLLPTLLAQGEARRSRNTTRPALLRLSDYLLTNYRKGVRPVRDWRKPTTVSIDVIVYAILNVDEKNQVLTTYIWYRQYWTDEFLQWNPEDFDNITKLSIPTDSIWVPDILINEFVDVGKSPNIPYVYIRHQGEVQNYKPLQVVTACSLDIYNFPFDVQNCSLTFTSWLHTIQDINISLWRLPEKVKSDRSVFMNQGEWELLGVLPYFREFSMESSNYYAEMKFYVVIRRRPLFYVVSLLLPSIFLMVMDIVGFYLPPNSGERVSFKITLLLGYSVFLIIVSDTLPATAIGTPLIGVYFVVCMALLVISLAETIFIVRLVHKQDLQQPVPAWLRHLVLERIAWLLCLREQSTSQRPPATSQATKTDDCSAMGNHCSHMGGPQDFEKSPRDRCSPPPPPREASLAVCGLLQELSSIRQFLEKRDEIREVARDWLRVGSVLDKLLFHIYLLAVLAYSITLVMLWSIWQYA

[5] = biological target: T5, Histamine H1 receptor (Homo sapiens, UniProt P35367); experiment: Inhibition of H1 receptor at 10 uM
[6] = biological target: Histamine H3 receptor (Homo sapiens) (UniProt Q9Y5N1); experiment: Inhibition of H3 receptor at 10 uM
[7] = biological target: T6, 5-hydroxytryptamine receptor 2C (Homo sapiens) (UniProt P28335); experiment: Inhibition of 5HT2C receptor at 10 uM
T6 sequence (whole entry): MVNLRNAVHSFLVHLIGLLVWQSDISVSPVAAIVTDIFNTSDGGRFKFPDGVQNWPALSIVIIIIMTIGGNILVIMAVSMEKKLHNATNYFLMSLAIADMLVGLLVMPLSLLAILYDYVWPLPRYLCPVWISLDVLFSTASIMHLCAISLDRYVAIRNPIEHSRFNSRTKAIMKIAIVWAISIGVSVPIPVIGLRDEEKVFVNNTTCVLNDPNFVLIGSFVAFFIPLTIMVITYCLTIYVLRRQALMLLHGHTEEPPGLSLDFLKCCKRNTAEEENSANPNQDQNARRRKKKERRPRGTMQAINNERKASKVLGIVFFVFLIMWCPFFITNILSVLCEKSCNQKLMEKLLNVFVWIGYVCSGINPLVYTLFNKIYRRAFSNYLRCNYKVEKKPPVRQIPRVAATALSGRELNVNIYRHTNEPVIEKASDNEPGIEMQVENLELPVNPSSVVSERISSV

[8] = biological target: T7, 5-hydroxytryptamine receptor 2A (Homo sapiens, UniProt P28223); experiment: Inhibition of 5HT2A receptor at 10 uM
[9] = Displacement of [3H]-ditolyl guanidine from sigma 2 receptor in rat PC12 cells; type: cell-based; settings: pc-12
[10] = biological target: Alpha-2C adrenergic receptor (Homo sapiens) (UniProt P18825); experiment: Inhibition of Alpha-2C adrenergic receptor at 10 uM
[11] = biological target: T8, D(4) dopamine receptor (Homo sapiens) (UniProt P21917); experiment: Inhibition of dopamine D4 receptor at 10 uM
T8 sequence (whole entry): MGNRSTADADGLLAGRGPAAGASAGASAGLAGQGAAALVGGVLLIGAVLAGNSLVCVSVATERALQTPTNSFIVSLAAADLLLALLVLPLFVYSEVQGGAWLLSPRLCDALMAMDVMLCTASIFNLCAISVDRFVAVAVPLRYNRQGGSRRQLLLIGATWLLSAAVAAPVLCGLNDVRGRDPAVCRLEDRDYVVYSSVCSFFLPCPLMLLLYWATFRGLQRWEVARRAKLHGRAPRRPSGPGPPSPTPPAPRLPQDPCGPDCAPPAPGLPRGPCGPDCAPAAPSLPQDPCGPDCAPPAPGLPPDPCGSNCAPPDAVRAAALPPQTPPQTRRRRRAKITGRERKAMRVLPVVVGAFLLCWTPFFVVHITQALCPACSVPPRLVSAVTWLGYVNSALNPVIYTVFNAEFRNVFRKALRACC

[12] = biological target: D(2) dopamine receptor (Homo sapiens) (UniProt P14416); experiment: Inhibition of dopamine D2 receptor at 10 uM
[13] = biological target: T2, Muscarinic acetylcholine receptor M3; experiment: Inhibition of muscarinic M3 receptor
Target sequence in this assay (P20309 whole entry): as the sequence (P20309 whole entry, looked up) above

[14] = biological target: T5, Histamine H1 receptor; experiment: Inhibition of H1 receptor
[15] = biological target: Alpha-2A adrenergic receptor (Homo sapiens, UniProt P08913); experiment: Inhibition of alpha2A adrenergic receptor
[16] = biological target: T7, 5-hydroxytryptamine receptor 2A; experiment: Inhibition of 5HT2A receptor
[17] = biological target: Muscarinic acetylcholine receptor M4 (Homo sapiens, UniProt P08173); experiment: Inhibition of muscarinic M4 receptor
[18] = biological target: 5-hydroxytryptamine receptor 6 (Homo sapiens, UniProt P50406); experiment: Inhibition of 5HT6 receptor
[19] = biological target: Muscarinic acetylcholine receptor M5 (Homo sapiens, UniProt P08912); experiment: Inhibition of muscarinic M5 receptor
[20] = biological target: Muscarinic acetylcholine receptor M2 (Homo sapiens, UniProt P08172); experiment: Inhibition of muscarinic M2 receptor
[21] = biological target: T3, 5-hydroxytryptamine receptor 2B; experiment: Inhibition of 5HT2B receptor
[22] = organism: Rattus norvegicus; experiment: Inhibition of BZP receptor in rat brain; type: tissue-based; settings: concentration not given here
[23] = biological target: Alpha-2C adrenergic receptor (Homo sapiens, UniProt P18825); experiment: Inhibition of Alpha-2C adrenergic receptor
[24] = biological target: Alpha-2B adrenergic receptor (Homo sapiens) (UniProt P18089); experiment: Inhibition of alpha2B adrenergic receptor at 10 uM
[25] = Inhibition of GABAA receptor at 10 uM
[26] = biological target: D(3) dopamine receptor (Homo sapiens, UniProt P35462); experiment: Inhibition of dopamine D3 receptor at 10 uM
[27] = biological target: Histamine H2 receptor (Homo sapiens, UniProt P25021); experiment: Inhibition of H2 receptor at 10 uM
[28] = biological target: T1, D(1B) dopamine receptor; experiment: Inhibition of dopamine D5 receptor

Chain of D(2) dopamine receptor (Homo sapiens) (P14416 whole entry): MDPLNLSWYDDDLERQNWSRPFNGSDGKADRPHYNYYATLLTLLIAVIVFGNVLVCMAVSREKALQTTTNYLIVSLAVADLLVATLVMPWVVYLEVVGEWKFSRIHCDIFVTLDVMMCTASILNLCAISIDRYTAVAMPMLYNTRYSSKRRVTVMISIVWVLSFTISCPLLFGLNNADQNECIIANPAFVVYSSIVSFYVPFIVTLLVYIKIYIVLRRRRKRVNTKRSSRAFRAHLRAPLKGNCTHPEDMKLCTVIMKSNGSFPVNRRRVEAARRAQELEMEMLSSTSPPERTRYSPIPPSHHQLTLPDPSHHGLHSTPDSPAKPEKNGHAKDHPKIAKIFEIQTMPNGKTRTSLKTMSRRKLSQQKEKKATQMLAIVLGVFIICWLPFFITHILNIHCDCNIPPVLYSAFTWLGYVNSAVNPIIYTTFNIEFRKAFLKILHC
T3 sequence (P41595 whole entry): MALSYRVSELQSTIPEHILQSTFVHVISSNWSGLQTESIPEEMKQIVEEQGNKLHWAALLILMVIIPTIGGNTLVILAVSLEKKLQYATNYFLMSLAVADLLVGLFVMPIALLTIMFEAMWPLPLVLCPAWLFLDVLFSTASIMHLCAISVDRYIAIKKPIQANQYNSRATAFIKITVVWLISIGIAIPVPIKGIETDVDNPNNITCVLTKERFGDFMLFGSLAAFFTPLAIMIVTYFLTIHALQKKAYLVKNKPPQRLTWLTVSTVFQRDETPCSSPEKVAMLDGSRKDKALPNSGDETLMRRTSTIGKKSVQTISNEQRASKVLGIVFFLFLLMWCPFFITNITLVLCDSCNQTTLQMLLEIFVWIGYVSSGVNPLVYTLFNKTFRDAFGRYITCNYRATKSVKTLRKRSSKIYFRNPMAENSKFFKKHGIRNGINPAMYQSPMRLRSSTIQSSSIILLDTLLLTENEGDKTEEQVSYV
T1 sequence (P21918 whole entry): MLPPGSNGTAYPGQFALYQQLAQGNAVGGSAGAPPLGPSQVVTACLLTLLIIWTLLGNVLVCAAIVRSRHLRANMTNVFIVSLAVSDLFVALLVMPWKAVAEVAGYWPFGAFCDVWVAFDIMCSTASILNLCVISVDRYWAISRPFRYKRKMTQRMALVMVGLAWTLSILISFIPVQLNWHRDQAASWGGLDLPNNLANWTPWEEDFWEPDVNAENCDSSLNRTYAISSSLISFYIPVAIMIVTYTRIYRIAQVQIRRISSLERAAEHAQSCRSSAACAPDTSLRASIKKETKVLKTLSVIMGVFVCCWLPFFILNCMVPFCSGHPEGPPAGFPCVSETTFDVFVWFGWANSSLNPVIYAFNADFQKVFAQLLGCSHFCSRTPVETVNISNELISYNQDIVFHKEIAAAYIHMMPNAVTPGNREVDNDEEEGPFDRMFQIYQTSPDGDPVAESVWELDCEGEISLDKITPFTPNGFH
T7 sequence (P28223 whole entry): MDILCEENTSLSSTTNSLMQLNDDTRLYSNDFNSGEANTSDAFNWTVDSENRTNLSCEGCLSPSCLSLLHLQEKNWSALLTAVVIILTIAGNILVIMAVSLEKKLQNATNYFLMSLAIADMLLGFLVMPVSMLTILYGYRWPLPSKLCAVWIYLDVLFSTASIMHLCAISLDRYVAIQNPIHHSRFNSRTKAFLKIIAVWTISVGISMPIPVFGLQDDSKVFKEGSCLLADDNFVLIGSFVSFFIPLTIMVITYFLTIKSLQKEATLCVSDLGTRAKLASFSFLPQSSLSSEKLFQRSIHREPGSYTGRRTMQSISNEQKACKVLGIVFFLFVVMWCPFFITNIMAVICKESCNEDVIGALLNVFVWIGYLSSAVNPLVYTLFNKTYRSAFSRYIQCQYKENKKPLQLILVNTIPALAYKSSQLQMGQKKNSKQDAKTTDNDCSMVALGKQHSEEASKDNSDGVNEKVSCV
Chain of Histamine H3 receptor (Homo sapiens) (Q9Y5N1 whole entry): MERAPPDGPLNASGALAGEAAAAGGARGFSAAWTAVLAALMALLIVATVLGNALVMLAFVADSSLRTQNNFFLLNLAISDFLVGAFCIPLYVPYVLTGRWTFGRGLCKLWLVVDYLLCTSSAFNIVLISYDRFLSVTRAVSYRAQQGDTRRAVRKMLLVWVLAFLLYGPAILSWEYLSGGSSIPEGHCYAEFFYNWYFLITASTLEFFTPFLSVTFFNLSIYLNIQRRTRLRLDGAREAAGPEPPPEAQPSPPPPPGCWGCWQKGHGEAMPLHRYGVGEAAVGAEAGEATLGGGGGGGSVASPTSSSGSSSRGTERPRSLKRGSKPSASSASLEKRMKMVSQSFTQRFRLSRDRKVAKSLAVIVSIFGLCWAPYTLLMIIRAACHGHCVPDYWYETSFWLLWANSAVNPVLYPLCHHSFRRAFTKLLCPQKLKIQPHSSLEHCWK
Chain of Alpha-2B adrenergic receptor (Homo sapiens) (P18089 whole entry): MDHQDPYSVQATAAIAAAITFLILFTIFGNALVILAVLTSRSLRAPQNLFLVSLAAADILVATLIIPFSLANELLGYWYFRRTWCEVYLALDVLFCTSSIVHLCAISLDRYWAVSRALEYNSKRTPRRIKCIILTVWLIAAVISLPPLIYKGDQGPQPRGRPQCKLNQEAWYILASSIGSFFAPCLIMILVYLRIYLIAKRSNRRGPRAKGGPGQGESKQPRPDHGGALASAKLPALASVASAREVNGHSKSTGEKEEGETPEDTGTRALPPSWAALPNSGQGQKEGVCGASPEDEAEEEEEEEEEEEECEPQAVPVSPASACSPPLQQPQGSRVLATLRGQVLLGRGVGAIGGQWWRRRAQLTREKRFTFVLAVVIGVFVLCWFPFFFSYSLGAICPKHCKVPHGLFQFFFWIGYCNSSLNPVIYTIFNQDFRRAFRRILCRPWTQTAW
Chain of Alpha-2C adrenergic receptor (Homo sapiens) (P18825 whole entry): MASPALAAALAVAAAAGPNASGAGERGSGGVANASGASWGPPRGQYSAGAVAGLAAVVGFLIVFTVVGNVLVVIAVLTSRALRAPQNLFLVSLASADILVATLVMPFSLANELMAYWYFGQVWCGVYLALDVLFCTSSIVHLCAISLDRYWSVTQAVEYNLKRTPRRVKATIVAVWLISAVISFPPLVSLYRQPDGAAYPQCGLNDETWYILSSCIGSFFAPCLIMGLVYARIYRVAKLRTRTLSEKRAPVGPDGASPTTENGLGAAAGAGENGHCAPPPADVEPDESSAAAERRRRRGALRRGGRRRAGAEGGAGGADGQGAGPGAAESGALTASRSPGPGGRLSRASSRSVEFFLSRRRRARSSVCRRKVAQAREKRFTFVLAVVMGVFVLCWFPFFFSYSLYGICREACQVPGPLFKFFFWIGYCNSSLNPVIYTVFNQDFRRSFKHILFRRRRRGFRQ
T5 sequence (P35367 whole entry): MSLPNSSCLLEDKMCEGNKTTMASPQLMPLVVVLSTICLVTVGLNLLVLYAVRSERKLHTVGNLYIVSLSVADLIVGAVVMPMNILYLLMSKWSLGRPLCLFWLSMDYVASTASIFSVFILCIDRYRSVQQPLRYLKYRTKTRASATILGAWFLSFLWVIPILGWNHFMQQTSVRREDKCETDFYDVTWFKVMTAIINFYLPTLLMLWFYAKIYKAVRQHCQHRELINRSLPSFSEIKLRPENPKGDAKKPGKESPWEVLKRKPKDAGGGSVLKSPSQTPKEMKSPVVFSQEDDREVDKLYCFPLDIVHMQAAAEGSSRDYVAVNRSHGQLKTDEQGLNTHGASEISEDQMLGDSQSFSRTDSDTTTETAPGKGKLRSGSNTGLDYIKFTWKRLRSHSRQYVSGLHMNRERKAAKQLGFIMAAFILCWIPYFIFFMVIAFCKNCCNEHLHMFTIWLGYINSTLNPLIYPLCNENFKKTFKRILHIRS
Chain of Muscarinic acetylcholine receptor M2 (P08172 whole entry): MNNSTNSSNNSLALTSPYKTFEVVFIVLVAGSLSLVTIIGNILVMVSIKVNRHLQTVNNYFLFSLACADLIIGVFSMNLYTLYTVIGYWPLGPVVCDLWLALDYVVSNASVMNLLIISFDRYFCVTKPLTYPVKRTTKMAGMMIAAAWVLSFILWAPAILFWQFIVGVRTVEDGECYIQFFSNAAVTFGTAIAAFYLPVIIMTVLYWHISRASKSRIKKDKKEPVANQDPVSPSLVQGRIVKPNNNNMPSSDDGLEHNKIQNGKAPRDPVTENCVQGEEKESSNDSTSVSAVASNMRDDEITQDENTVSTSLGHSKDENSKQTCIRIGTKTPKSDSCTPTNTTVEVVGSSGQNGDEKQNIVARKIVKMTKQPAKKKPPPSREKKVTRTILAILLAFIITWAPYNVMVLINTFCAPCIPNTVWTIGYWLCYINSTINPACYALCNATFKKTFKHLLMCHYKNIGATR
Chain of Alpha-2C adrenergic receptor (P18825 whole entry): as the sequence (P18825 whole entry) above

**Q.** Which inhibition [1] does the source give for `Fc1cccc(CN[C@H]2C3C4CC5C6C4CC3C6C52)c1` (some centres not stated) here?
**A.** < 50%

**Q.** What about the inhibition [2] of the same molecule?
**A.** < 50%

**Q.** What about the inhibition [3] of the same molecule?
**A.** < 50%

**Q.** And the inhibition [4]?
**A.** < 50%

**Q.** And the inhibition [5]?
**A.** < 50%

**Q.** And the inhibition [6]?
**A.** < 50%

**Q.** And the inhibition [7]?
**A.** < 50%

**Q.** What about the inhibition [8] of the same molecule?
**A.** < 50%

**Q.** What about the Ki [9] of the same molecule?
**A.** 19 nM

**Q.** And the inhibition [10]?
**A.** < 50%

**Q.** And the inhibition [11]?
**A.** < 50%

**Q.** And the inhibition [12]?
**A.** < 50%

**Q.** Which results are given for `Fc1cccc(CCN[C@H]2C3C4CC5C6C4CC3C6C52)c1` (some centres not stated)?
**A.** Ki [13]: 1390 nM; inhibition [1]: < 50%; Ki [14]: 2380 nM; inhibition [4]: < 50%; Ki [15]: 7.61 µM; Ki [16]: 6.02 µM; inhibition [6]: < 50%; Ki [17]: 705 nM; Ki [18]: > 10 µM; Ki [19]: 1830 nM; Ki [20]: 2290 nM; Ki [21]: 6.98 µM; inhibition [7]: < 50%; Ki [9]: 6 nM; inhibition [11]: < 50%; inhibition [12]: < 50%

**Q.** Which inhibition [22] does the source give for `CN(CCc1cccc(F)c1)[C@H]1C2C3CC4C5C3CC2C5C41` (some centres not stated) here?
**A.** < 50%

**Q.** What about the inhibition [2] of the same molecule?
**A.** < 50%

**Q.** And the Ki [23]?
**A.** 2070 nM

**Q.** What about the inhibition [24] of the same molecule?
**A.** < 50%

**Q.** What about the inhibition [25] of the same molecule?
**A.** < 50%

**Q.** What about the inhibition [4] of the same molecule?
**A.** < 50%

**Q.** And the Ki [16]?
**A.** > 10 µM

**Q.** And the inhibition [6]?
**A.** < 50%

**Q.** And the Ki [21]?
**A.** 6.09 µM

**Q.** And the inhibition [7]?
**A.** < 50%

**Q.** And the Ki [9]?
**A.** 39 nM

**Q.** And the inhibition [11]?
**A.** < 50%

**Q.** What about the inhibition [12] of the same molecule?
**A.** < 50%

**Q.** For `CN(Cc1cccc(F)c1)[C@H]1C2C3CC4C5C3CC2C5C41` (some centres not stated), which inhibition [26] is on record?
**A.** < 50%

**Q.** And the inhibition [22]?
**A.** < 50%

**Q.** And the inhibition [2]?
**A.** < 50%

**Q.** What about the inhibition [3] of the same molecule?
**A.** < 50%

**Q.** And the inhibition [24]?
**A.** < 50%

**Q.** And the inhibition [25]?
**A.** < 50%

**Q.** And the inhibition [4]?
**A.** < 50%

**Q.** What about the inhibition [27] of the same molecule?
**A.** < 50%

**Q.** And the inhibition [6]?
**A.** < 50%

**Q.** And the Ki [28]?
**A.** > 10 µM

**Q.** What about the inhibition [7] of the same molecule?
**A.** < 50%

**Q.** And the inhibition [8]?
**A.** < 50%

**Q.** What about the Ki [9] of the same molecule?
**A.** 117 nM

**Q.** What about the inhibition [10] of the same molecule?
**A.** < 50%

**Q.** And the inhibition [11]?
**A.** < 50%

**Q.** And the inhibition [12]?
**A.** < 50%
